Test results taken from patent publication US6703371B1, “Preparations for reducing oxygen consumption during physical efforts” (priority 1999, dated 2004).
Several values for one entry are separate records, joined by “and”; a condition that tells them apart may be missing. Identical values can stand only once. Like-named read-outs stand apart in the source and are kept apart here.

How the values were obtained:
test subject [1] = assay type: in vivo, human; conditions: for change in vivo at 0.2 mg / change in vivo at 1 mg: Homo sapiens, 10 min
test subject [2] = test: Bicycle ergometer test at 100 W: antagonism between inactive (1st dosage) and active (2nd dosage) substances (Example 1b); assay type: in vivo, human; conditions: for Change in the oxygen consumption after 2nd dosage: relative to after 1st dosage
Procedure: (§1) 13 to Mar. 6, 1999, with a subject in good physical condition under standard conditions. The subject was required each morning in the fasting state to perform successively (without interruption) at mechanical power output of 100 W, 125 W and 150 W, each lasting 10 minutes (total test duration 30 minutes each time). […] The heat production induced by mechanical exertion was calculated from the changes in the heart rate. An alternative possibility is also to determine it on the basis of the increase in humidity caused by the perspiration (the tests are carried out in a closed room) or reduction in weight (1 g of water=2.26 kJ). […] The values indicated in table la for the “average heart rate” are in each case averages over the 30-minute duration of the test; relative values for the oxygen consumption were established on the basis of the heart rates in a known manner, and the relative values indicated in Table 1a are based on the oxygen consumption on the first day (=100%); the values listed in the column “heat production” in Table 1a give the percentage deviation of the heat production, established on the basis of the perspiration, from the average from all the tests.
(§2) It is known that the oxygen uptake can be determined by measuring the heart rate as a function of the mechanical exertion. This ergometric method is based on establishing the oxygen transport volume through the action of the heart. Since the stroke volume is essentially constant irrespective of the intensity of the mechanical work, and the increased oxygen demand caused by the increase in work results in an increase in the heart rate, the quantity of the transported oxygen can be established by determining the additional heartbeats caused by the work. A 3-stage ergometer as recommended by the World Health Organization (WHO) is used in physiology research institutes and fitness clubs around the world.

[3] = Oxygen-sparing action during physical work, general findings in the description; assay type: in vivo; conditions: result in words; for Oxygen demand after administration: even occasionally increased
test subject [4] = test: Bicycle ergometer test at 100 W: active ingredient, sucrose, further active ingredient, amino acid/vitamin product (Example 1c); assay type: in vivo, human; conditions: for Change in oxygen consumption after 2nd dos.: 2nd dosage 2.5 g of sucrose; for Change in oxygen consumption after 2nd dos. / Change in oxygen consumption after 4th dos. / Change in oxygen consumption after 3rd dos.: relative to preceding dosage; for Change in oxygen consumption after 4th dos.: 4th dosage Na glutamate/folic acid/cyanocobalamin/gelatin; for Average heart rate after 1st dos.: 10-minute test at 100 W
test subject [5] = test: as above; assay type: in vivo, human; conditions: for Average heart rate after 4th dos.: 4th dosage 100 mg of Na glutamate, 0.3 mg of folic acid, 5 μg of cyanocobalamin in 10 mg of gelatin; for Average heart rate after 2nd dos.: then 2nd dosage 2.5 g of sucrose
Procedure: as §1, §2

test subject [6] = conditions: 125 W
Description: Unless otherwise indicated, the tests each took place in the morning in the fasting state, with mechanical power outputs of 100 W, 125 W or 150 W being required in each case from the test subject during one or more 10-minute test periods. A bicycle ergometer from Ergo Fit (Kaiserslautern, Germany) was used for this, and the required work was controlled at 60 pedal revolutions per minute in each case (controlled by a metronome from Seiko, Japan) by means of an eddy current brake. A heart rate computer from Polar Electro (Kempele, Finland) was used for continuous measurement of the heart rate; the atmospheric pressure was measured by an electronic barograph from Altitude Instrumentation (Paris, France) with a resolution of 0.1 mbar; the temperature and relative humidity were measured by an electronic thermohygrometer. The “average heart rates” indicated in the tables are in each case averages of the particular test period. The test subject received a high-carbohydrate diet mainly composed of pasta, and meat of young animals (veal, chicken, fish) in order to ensure an adequate supply of protein, throughout the series of tests. Only 1 test was carried out on each day.
Only 1 test was carried out on each day.

test subject [7] = test: Bicycle ergometer test at 100 W with gelatin products (Example 7); assay type: in vivo, human; conditions: for Average heart rate after 1st dos.: 100 W; for Average heart rate before: 10-minute control test at 100 W before the 1st dosage
Procedure: In tests analogous to Example 1, the tests indicated in Table 7 were carried out with gelatin products which were produced in analogy to Examples 3-5. After a warm-up period of 5 minutes in each case firstly the heartbeats were recorded at a mechanical power output of 100 W during a 10-minute control test, then the 1st dosage was administered and immediately thereafter the heart rate was measured in a 10-minute test period with a power output of 100 W. In the case of a 2nd dosage, this further administration and a second 10-minute test period take place with a power output of 100 W immediately following the first test period.

[8] = read-out: Change in the oxygen demand
[9] = read-out: Heat production (deviation from the average of all the tests)
[10] = 1st dosage 0.2 mg as dilute aqueous solution
[11] = 3rd dosage further 0.2 mg of active ingredient
[12] = 3rd dosage further 0.2 mg of active ingredient after sucrose
[13] = after 0.2 mg of active ingredient
[14] = 1st dosage 1 mg as dilute aqueous solution
[15] = 3rd dosage further 1 mg of active ingredient
[16] = 3rd dosage further 1 mg of active ingredient after sucrose
[17] = after 1 mg of active ingredient

SMILES	change in vivo at 0.2 mg (test subject [1]; [8]) [%]	change in vivo at 0.2 mg (test subject [1]; [9]) [%]	Suitability for reducing the oxygen consumption during physical work [3]	Change in oxygen consumption after 2nd dos. (test subject [4]; 0.2 mg series)	Change in oxygen consumption after 4th dos. (test subject [4]; 0.2 mg series) [%]	Average heart rate after 1st dos. (test subject [4]; [10]) [per minute]	Change in oxygen consumption after 3rd dos. (test subject [4]; [11])	Average heart rate after 4th dos. (test subject [5]; 0.2 mg series) [per minute]	Average heart rate after 3rd dos. (test subject [5]; [12]) [per minute]	Average heart rate after 2nd dos. (test subject [5]; [13]) [per minute]	change in vivo at 1 mg (test subject [1]; [8]) [%]	Change in oxygen consumption after 2nd dos. (test subject [4]; 1 mg series)	Change in oxygen consumption after 4th dos. (test subject [4]; 1 mg series) [%]	Average heart rate after 1st dos. (test subject [4]; [14]) [per minute]	Change in oxygen consumption after 3rd dos. (test subject [4]; [15])	Average heart rate after 4th dos. (test subject [5]; 1 mg series) [per minute]	Average heart rate after 3rd dos. (test subject [5]; [16]) [per minute]	Average heart rate after 2nd dos. (test subject [5]; [17]) [per minute]	Oxygen demand after administration [3]	Average heart rate before (test subject [7])	other results
COc1ccc2c3c1O[C@H]1[C@@H](O)C=C[C@H]4[C@@H](C2)N(C)CC[C@@]341 [codeine]	-29	-27	suitable	+69%	−50	73.0	+2%	82.9	108	107.3											Change in the oxygen consumption after 2nd dosage (test subject [2]; 2nd dosage 0.5 mg, after 0.5 mg of flupentixol, 100 W): −57%; Change in the oxygen consumption after 2nd dosage (test subject [2]; 2nd dosage 0.5 mg, after 1 mg of lorazepam, 100 W): −59%; Change in the oxygen consumption after 2nd dosage (test subject [2]; 2nd dosage 0.5 mg, after 6 mg of amitriptyline + 2.5 mg of chlordiazepoxide, 100 W): −52%; Change in the oxygen consumption after 2nd dosage (test subject [2]; 2nd dosage 0.5 mg, after 7 mg of oxazepam, 100 W): −67%; Change in the oxygen consumption after 2nd dosage (test subject [2]; 2nd dosage 0.5 mg, after 10 mg of chlorprotixen, 100 W): −69%; Average heart rate after 2nd dosage (test subject [2]; 2nd dosage 0.5 mg, after 1st dosage of 0.5 mg of flupentixol, 100 W): 89.7 per minute; Average heart rate after 2nd dosage (test subject [2]; 2nd dosage 0.5 mg, after 1st dosage of 1 mg of lorazepam, 100 W): 91.8 per minute; Average heart rate after 2nd dosage (test subject [2]; 2nd dosage 0.5 mg, after 1st dosage of 6 mg of amitriptyline + 2.5 mg of chlordiazepoxide, 100 W): 86.5 per minute; Average heart rate after 2nd dosage (test subject [2]; 2nd dosage 0.5 mg, after 1st dosage of 7 mg of oxazepam, 100 W): 104.1 per minute; Average heart rate after 2nd dosage (test subject [2]; 2nd dosage 0.5 mg, after 1st dosage of 10 mg of chlorprotixen, 100 W): 90.0 per minute
COc1ccc2c(c1)[C@]13CCCC[C@@H]1[C@H](C2)N(C)CC3 [dextromethorphan]	-57	-49	suitable	+69%	−46	75.8	+1%	87.8	111	110.4											Change in the oxygen consumption after 2nd dosage (test subject [2]; 2nd dosage 0.2 mg, after 6 mg of amitriptyline + 2.5 mg of chlordiazepoxide, 100 W): −81%; Average heart rate after 2nd dosage (test subject [2]; 2nd dosage 0.2 mg, after 1st dosage of 6 mg of amitriptyline + 2.5 mg of chlordiazepoxide, 100 W): 84.8 per minute
CN1C(=O)CN=C(c2ccccc2)c2cc(Cl)ccc21 [diazepam]			suitable								-44	+74%	−54	74.8	+2%	86.3	113.1	111.9			change in vivo at 1 mg (test subject [1]; [9]): -50%; Change in the oxygen consumption after 2nd dosage (test subject [2]; 2nd dosage 1 mg, after 3 mg of bromazepam, 100 W): −65%; Change in the oxygen consumption after 2nd dosage (test subject [2]; 2nd dosage 1 mg, after 7 mg of oxazepam, 100 W): −72%; Change in the oxygen consumption after 2nd dosage (test subject [2]; 2nd dosage 1 mg, after 10 mg of nitrazepam, 100 W): −59%; Average heart rate after 2nd dosage (test subject [2]; 2nd dosage 1 mg, after 1st dosage of 3 mg of bromazepam, 100 W): 97.0 per minute; Average heart rate after 2nd dosage (test subject [2]; 2nd dosage 1 mg, after 1st dosage of 7 mg of oxazepam, 100 W): 89.4 per minute; Average heart rate after 2nd dosage (test subject [2]; 2nd dosage 1 mg, after 1st dosage of 10 mg of nitrazepam, 100 W): 102.1 per minute; Average heart rate (test subject [6]; 1 mg, atmospheric pressure 1010.0 mbar): 80 per minute; Average heart rate (test subject [6]; 1 mg, atmospheric pressure 1010.8 mbar): 71 per minute; Average heart rate (test subject [6]; 1 mg, atmospheric pressure 1015.2 mbar): 77 per minute; Average heart rate (test subject [6]; 1 mg, atmospheric pressure 1015.9 mbar): 72 per minute; Average heart rate (test subject [6]; 1 mg, atmospheric pressure 1017.4 mbar): 74 per minute; Average heart rate (test subject [6]; 1 mg, atmospheric pressure 1017.5 mbar): 72 per minute; Average heart rate (test subject [6]; 1 mg, atmospheric pressure 1021.7 mbar): 76 per minute; Average heart rate (test subject [6]; 1 mg, atmospheric pressure 1026.3 mbar): 75 per minute; Average heart rate (test subject [6]; 2 mg, atmospheric pressure 1005.9 mbar): 76 per minute; Average heart rate (test subject [6]; 2 mg, atmospheric pressure 1007.8 mbar): 79 per minute; Effect of low atmospheric pressure on heart rate and oxygen consumption (test subject [6]; result in words): can be compensated
CN(C)CCCN1c2ccccc2CCc2ccccc21 [imipramine]																			not reduced	87.7 per minute	Average heart rate after 1st dosage (test subject [2]; 1st dosage 10 mg in 20 ml of water, 10-minute test at 100 W): 109.5 per minute; change in vivo at 10 mg (test subject [2]; Homo sapiens, 1st dosage 10 mg, 100 W, read-out: Change in the oxygen consumption after 1st dosage): 23%; Average heart rate after 1st dos. (test subject [7]; 1st dosage 10 mg): 100.2 per minute
Cc1ncc2n1-c1ccc(Cl)cc1C(c1ccccc1F)=NC2 [midazolam]			suitable								-42	+70%	−58	75.9	+2%	83.2	112.1	110.9			Effect on the heart rate, the oxygen consumption and the heat production (test subject [1]; low dosage, 125 W, result in words): marked reduction in the heart rate, the oxygen consumption and the heat production
CC(CN(C)C)CN1c2ccccc2CCc2ccccc21 (centres unmarked) [trimipramine]																			not reduced	79.8 per minute and 81.7 per minute	Average heart rate after 1st dos. (test subject [7]; 1st dosage 12.5 mg): 101.7 per minute and 97.0 per minute
